Source: the NIST ThermoML archive (doi:10.1021/acs.jced.9b00752)
Where “and” joins values, the source holds several entries; their conditions need not be identical. Equal values may be shown once. Numbers after ± are expanded uncertainties.

Assay: mn = molality of the nth substance listed, in mol/kg
Conditions: 100 kPa, Liquid, Vibrating tube method

## N[C@@H](Cc1ccc(O)cc1)C(=O)O [3-(p-hydroxyphenyl)-L-alanine] + O
273.65 K, m1 = 0.0005
  mass density: 999.883 ± 0.1 kg/m3
273.65 K, m1 = 0.001
  mass density: 999.917 ± 0.1 kg/m3
273.65 K, m1 = 0.0011
  mass density: 999.943 ± 0.1 kg/m3
273.65 K, m1 = 0.0022
  mass density: 1000.01 ± 0.1 kg/m3
273.65 K, m1 = 0.0026
  mass density: 1000.03 ± 0.1 kg/m3
273.65 K, m1 = 0.0035
  mass density: 1000.1 ± 0.1 kg/m3
273.65 K, m1 = 0.0036
  mass density: 1000.1 ± 0.1 kg/m3
273.65 K, m1 = 0.0038
  mass density: 1000.11 ± 0.1 kg/m3
273.65 K, m1 = 0.0045
  mass density: 1000.16 ± 0.1 kg/m3 and 1000.17 ± 0.1 kg/m3
273.65 K, m1 = 0.0047
  mass density: 1000.16 ± 0.1 kg/m3
273.65 K, m1 = 0.0053
  mass density: 1000.21 ± 0.1 kg/m3 and 1000.22 ± 0.1 kg/m3
273.65 K, m1 = 0.0055
  mass density: 1000.21 ± 0.1 kg/m3
274.15 K, m1 = 0.0005
  mass density: 999.909 ± 0.1 kg/m3
274.15 K, m1 = 0.001
  mass density: 999.942 ± 0.1 kg/m3
274.15 K, m1 = 0.0011
  mass density: 999.97 ± 0.1 kg/m3
274.15 K, m1 = 0.0022
  mass density: 1000.04 ± 0.1 kg/m3
274.15 K, m1 = 0.0026
  mass density: 1000.06 ± 0.1 kg/m3
274.15 K, m1 = 0.0035
  mass density: 1000.13 ± 0.1 kg/m3
274.15 K, m1 = 0.0036
  mass density: 1000.13 ± 0.1 kg/m3
274.15 K, m1 = 0.0038
  mass density: 1000.13 ± 0.1 kg/m3
274.15 K, m1 = 0.0045
  mass density: 1000.18 ± 0.1 kg/m3 and 1000.2 ± 0.1 kg/m3
274.15 K, m1 = 0.0047
  mass density: 1000.19 ± 0.1 kg/m3
274.15 K, m1 = 0.0053
  mass density: 1000.23 ± 0.1 kg/m3 and 1000.25 ± 0.1 kg/m3
274.15 K, m1 = 0.0055
  mass density: 1000.23 ± 0.1 kg/m3
274.65 K, m1 = 0.0005
  mass density: 999.932 ± 0.1 kg/m3
274.65 K, m1 = 0.001
  mass density: 999.965 ± 0.1 kg/m3
274.65 K, m1 = 0.0011
  mass density: 999.993 ± 0.1 kg/m3
274.65 K, m1 = 0.0022
  mass density: 1000.06 ± 0.1 kg/m3
274.65 K, m1 = 0.0026
  mass density: 1000.08 ± 0.1 kg/m3
274.65 K, m1 = 0.0035
  mass density: 1000.15 ± 0.1 kg/m3
274.65 K, m1 = 0.0036
  mass density: 1000.15 ± 0.1 kg/m3
274.65 K, m1 = 0.0038
  mass density: 1000.15 ± 0.1 kg/m3
274.65 K, m1 = 0.0045
  mass density: 1000.21 ± 0.1 kg/m3 and 1000.22 ± 0.1 kg/m3
274.65 K, m1 = 0.0047
  mass density: 1000.21 ± 0.1 kg/m3
274.65 K, m1 = 0.0053
  mass density: 1000.26 ± 0.1 kg/m3 and 1000.27 ± 0.1 kg/m3
274.65 K, m1 = 0.0055
  mass density: 1000.25 ± 0.1 kg/m3
275.15 K, m1 = 0.0005
  mass density: 999.95 ± 0.1 kg/m3
275.15 K, m1 = 0.001
  mass density: 999.984 ± 0.1 kg/m3
275.15 K, m1 = 0.0011
  mass density: 1000.01 ± 0.1 kg/m3
275.15 K, m1 = 0.0022
  mass density: 1000.08 ± 0.1 kg/m3
275.15 K, m1 = 0.0026
  mass density: 1000.1 ± 0.1 kg/m3
275.15 K, m1 = 0.0035
  mass density: 1000.17 ± 0.1 kg/m3
275.15 K, m1 = 0.0036
  mass density: 1000.17 ± 0.1 kg/m3
275.15 K, m1 = 0.0038
  mass density: 1000.17 ± 0.1 kg/m3
275.15 K, m1 = 0.0045
  mass density: 1000.23 ± 0.1 kg/m3 and 1000.24 ± 0.1 kg/m3
275.15 K, m1 = 0.0047
  mass density: 1000.23 ± 0.1 kg/m3
275.15 K, m1 = 0.0053
  mass density: 1000.27 ± 0.1 kg/m3 and 1000.28 ± 0.1 kg/m3
275.15 K, m1 = 0.0055
  mass density: 1000.27 ± 0.1 kg/m3
275.65 K, m1 = 0.0005
  mass density: 999.963 ± 0.1 kg/m3
275.65 K, m1 = 0.001
  mass density: 999.997 ± 0.1 kg/m3
275.65 K, m1 = 0.0011
  mass density: 1000.02 ± 0.1 kg/m3
275.65 K, m1 = 0.0022
  mass density: 1000.09 ± 0.1 kg/m3
275.65 K, m1 = 0.0026
  mass density: 1000.11 ± 0.1 kg/m3
275.65 K, m1 = 0.0035
  mass density: 1000.18 ± 0.1 kg/m3
275.65 K, m1 = 0.0036
  mass density: 1000.18 ± 0.1 kg/m3
275.65 K, m1 = 0.0038
  mass density: 1000.18 ± 0.1 kg/m3
275.65 K, m1 = 0.0045
  mass density: 1000.24 ± 0.1 kg/m3 and 1000.25 ± 0.1 kg/m3
275.65 K, m1 = 0.0047
  mass density: 1000.24 ± 0.1 kg/m3
275.65 K, m1 = 0.0053
  mass density: 1000.29 ± 0.1 kg/m3 and 1000.3 ± 0.1 kg/m3
275.65 K, m1 = 0.0055
  mass density: 1000.29 ± 0.1 kg/m3
276.15 K, m1 = 0.0005
  mass density: 999.972 ± 0.1 kg/m3
276.15 K, m1 = 0.001
  mass density: 1000 ± 0.1 kg/m3
276.15 K, m1 = 0.0011
  mass density: 1000.03 ± 0.1 kg/m3
276.15 K, m1 = 0.0022
  mass density: 1000.1 ± 0.1 kg/m3
276.15 K, m1 = 0.0026
  mass density: 1000.12 ± 0.1 kg/m3
276.15 K, m1 = 0.0035
  mass density: 1000.19 ± 0.1 kg/m3
276.15 K, m1 = 0.0036
  mass density: 1000.19 ± 0.1 kg/m3
276.15 K, m1 = 0.0038
  mass density: 1000.19 ± 0.1 kg/m3
276.15 K, m1 = 0.0045
  mass density: 1000.25 ± 0.1 kg/m3
276.15 K, m1 = 0.0047
  mass density: 1000.25 ± 0.1 kg/m3
276.15 K, m1 = 0.0053
  mass density: 1000.29 ± 0.1 kg/m3 and 1000.31 ± 0.1 kg/m3
276.15 K, m1 = 0.0055
  mass density: 1000.29 ± 0.1 kg/m3
276.65 K, m1 = 0.0005
  mass density: 999.98 ± 0.1 kg/m3
276.65 K, m1 = 0.001
  mass density: 1000.01 ± 0.1 kg/m3
276.65 K, m1 = 0.0011
  mass density: 1000.04 ± 0.1 kg/m3
276.65 K, m1 = 0.0022
  mass density: 1000.11 ± 0.1 kg/m3
276.65 K, m1 = 0.0026
  mass density: 1000.13 ± 0.1 kg/m3
276.65 K, m1 = 0.0035
  mass density: 1000.19 ± 0.1 kg/m3
276.65 K, m1 = 0.0036
  mass density: 1000.2 ± 0.1 kg/m3
276.65 K, m1 = 0.0038
  mass density: 1000.2 ± 0.1 kg/m3
276.65 K, m1 = 0.0045
  mass density: 1000.25 ± 0.1 kg/m3 and 1000.26 ± 0.1 kg/m3
276.65 K, m1 = 0.0047
  mass density: 1000.26 ± 0.1 kg/m3
276.65 K, m1 = 0.0053
  mass density: 1000.3 ± 0.1 kg/m3 and 1000.31 ± 0.1 kg/m3
276.65 K, m1 = 0.0055
  mass density: 1000.3 ± 0.1 kg/m3
277.15 K, m1 = 0.0005
  mass density: 999.979 ± 0.1 kg/m3
277.15 K, m1 = 0.001
  mass density: 1000.01 ± 0.1 kg/m3
277.15 K, m1 = 0.0011
  mass density: 1000.04 ± 0.1 kg/m3
277.15 K, m1 = 0.0022
  mass density: 1000.11 ± 0.1 kg/m3
277.15 K, m1 = 0.0026
  mass density: 1000.13 ± 0.1 kg/m3
277.15 K, m1 = 0.0035
  mass density: 1000.2 ± 0.1 kg/m3
277.15 K, m1 = 0.0036
  mass density: 1000.2 ± 0.1 kg/m3
277.15 K, m1 = 0.0038
  mass density: 1000.2 ± 0.1 kg/m3
277.15 K, m1 = 0.0045
  mass density: 1000.25 ± 0.1 kg/m3 and 1000.26 ± 0.1 kg/m3
277.15 K, m1 = 0.0047
  mass density: 1000.26 ± 0.1 kg/m3
277.15 K, m1 = 0.0053
  mass density: 1000.3 ± 0.1 kg/m3 and 1000.31 ± 0.1 kg/m3
277.15 K, m1 = 0.0055
  mass density: 1000.3 ± 0.1 kg/m3
277.65 K, m1 = 0.0005
  mass density: 999.978 ± 0.1 kg/m3
277.65 K, m1 = 0.001
  mass density: 1000.01 ± 0.1 kg/m3
277.65 K, m1 = 0.0011
  mass density: 1000.04 ± 0.1 kg/m3
277.65 K, m1 = 0.0022
  mass density: 1000.11 ± 0.1 kg/m3
277.65 K, m1 = 0.0026
  mass density: 1000.13 ± 0.1 kg/m3
277.65 K, m1 = 0.0035
  mass density: 1000.19 ± 0.1 kg/m3
277.65 K, m1 = 0.0036
  mass density: 1000.19 ± 0.1 kg/m3
277.65 K, m1 = 0.0038
  mass density: 1000.2 ± 0.1 kg/m3
277.65 K, m1 = 0.0045
  mass density: 1000.25 ± 0.1 kg/m3 and 1000.26 ± 0.1 kg/m3
277.65 K, m1 = 0.0047
  mass density: 1000.25 ± 0.1 kg/m3
277.65 K, m1 = 0.0053
  mass density: 1000.3 ± 0.1 kg/m3 and 1000.31 ± 0.1 kg/m3
277.65 K, m1 = 0.0055
  mass density: 1000.3 ± 0.1 kg/m3
278.15 K, m1 = 0.0005
  mass density: 999.972 ± 0.1 kg/m3
278.15 K, m1 = 0.001
  mass density: 1000 ± 0.1 kg/m3
278.15 K, m1 = 0.0011
  mass density: 1000.03 ± 0.1 kg/m3
278.15 K, m1 = 0.0022
  mass density: 1000.1 ± 0.1 kg/m3
278.15 K, m1 = 0.0026
  mass density: 1000.12 ± 0.1 kg/m3
278.15 K, m1 = 0.0035
  mass density: 1000.19 ± 0.1 kg/m3
278.15 K, m1 = 0.0036
  mass density: 1000.19 ± 0.1 kg/m3
278.15 K, m1 = 0.0038
  mass density: 1000.19 ± 0.1 kg/m3
278.15 K, m1 = 0.0045
  mass density: 1000.24 ± 0.1 kg/m3 and 1000.25 ± 0.1 kg/m3
278.15 K, m1 = 0.0047
  mass density: 1000.25 ± 0.1 kg/m3
278.15 K, m1 = 0.0053
  mass density: 1000.29 ± 0.1 kg/m3 and 1000.3 ± 0.1 kg/m3
278.15 K, m1 = 0.0055
  mass density: 1000.29 ± 0.1 kg/m3
